Patent publication US7276531B2, “G-lactam derivatives as prostaglandin agonists” (Applied Research Systems ARS Holding N.V., priority 2003, dated 2007)

Assays:
[1] = test system: Dextran Sodium Sulfate-induced colitis; assay: In vivo inhibition of Dextran Sodium Sulfate-induced colitis; details: 0.1 mg/kg p.o. daily at days 3, 4, 5 and 6, DSS 4% mice
Description: The anti-inflammatory activity of compounds of the invention in colitis can be assayed as follows.
Within 6-10 days after ingesting Dextran Sodium Sulfate (DSS) mice show sign of diarrhea, rectal bleeding and weight loss and colonic mucosal lesions include multiple erosion, ulceration, and marked inflammatory cell infiltration.
Ulcerative colitis (UC) was induced in female mice (Balb/c, 20-22 g, Elevage Janvier) by Dextran Sodium Sulfate (DSS 4%) administered in drinking water. The mice had free access to DSS during 5 days.
The compounds of the invention were solubilized in […] and administered by gavage at days 3, 4, 5 and 6 after the induction of the UC.
The “treated group” wherein the animals have free access to DDS and are treated each day with compounds of the invention.
The “Dextran 4%” group wherein the animals have free access to DDS 4% and 0.5% CMC/O0.25% tween (vehicle) and are not treated.
• The body weight was determined daily. • The severity of the UC was assessed by a clinical score estimating the constituency of the stool (0=firm, 1=loose, 2=diarrhea) and the presence of blood (0=no blood, 1=occult blood, 2=gross rectal bleeding). • Seven days after the induction of the disease, the animals were sacrificed. The length and the weight of the colon were determined and the ratio Length/Weight/100 g body weight was calculated.
The percentages of inhibition of weight loss, of clinical scores and of increase in the ratio colon length/weight, are calculated as follows: % inhibition=(1−(“value for treated group”−“value for control group”/”value for Dextran 4% group”−“value for control group))*100.
The percentages of inhibition are calculated for each days 5, 6 and 7 for each parameter.

[2] = test system: aspirin-induced gastric ulceration; assay: In vivo inhibition of aspirin-induced gastric ulceration; details: rats
Description: The activity of compounds of the invention as protective agents against gastric ulceration can be assayed as follows and as described in Guth et al., 1979. […]
Four hours later, animals are sacrificed and gastric ulceration is scored for degree of hemorrhage and severity of ulcerative lesions as follows: 0=no hyperemia or bleeding, 1=hyperaemia, 2=slight spot bleeding, 3=hyperemia plus slight spot bleeding, 4=hyperemia plus spot bleeding within entire stomach. Reduction of concurrent control score values by 50 percent or more (≧50%) is considered significant.

[3] = test system: methacholine-induced bronchoconstriction; assay: In vivo inhibition of guinea pig broncho-constriction (methacholine-induced); details: Cavia porcellus, IT (intra-tracheal) route, read-out: calculated effective dose (ED50), bronchoconstriction
Description: The activity of compounds of the invention in dilation of bronchiolar muscles, may be tested in different models. Guinea pig pulmonary-cholinergic in vivo model is generally used to test the materials for the treatments of asthma in human (Fleisch et al., 1985) Compounds of the invention can be tested in this methacholine-induced bronchomuscle constriction model as described below.
Groups of 3 Duncan Hartley derived male or female guinea pigs weighing 250±50 g are anesthetized with pentobarbital sodium (50 mg/kg i.p., plus an additional 15 mg/kg i.p. if required) and succinylcholine chloride (2 mg/animal i.p.) is subsequently administered to prevent spontaneous respiration. Body temperature is maintained at 37° to 38° C.
The trachea is cannulated and the guinea pig is ventilated with a Harvard rodent respirator in a closed system. Tracheal pressure is recorded through a side-arm of the cannula connected to a P23ID Statham transducer. […] Mean arterial pressure (BP) is monitored from a cannulated carotid artery, and heart rate (HR) is obtained from chest electrodes arranged for lead II. […]
Compounds of the invention are also tested via intra-tracheal (IT) route of administration. […] Tracheal pressure (ITP), blood pressure and heart rate are measured immediately as indicated in the material and methods sections. […]

Q: How did the “improved clinical score, increase compared to non-treated animals” value [1] turn out when CCCC/C(C)=C/C=C\[C@H]1CCC(=O)N1CCc1ccc(C(=O)O)cc1 [Example 3, 4-(2-{(2R)-2-[(1Z,3E)-4-methylocta-1,3-dienyl]-5-oxopyrrolidin-1-yl}ethyl)benzoic acid] was run?
A: 40%

Q: What about the “increased colon weight/length, increase compared to non-treated animals” value [1] of the same compound?
A: 36%

Q: What about the “inhibition of loss of body-weight compared to non-treated animals” value [1] of the same compound?
A: 39%

Q: And the “percentage of protection (gastric ulceration)” value ([2]; 10 mg/kg administered orally)?
A: 65%

Q: And the Ulceration scores ([2]; aspirin 150 mg/kg oral gavage)?
A: decreased in a dose-dependent manner

Q: What about the ED50 [3] of the same compound?
A: 0.2 mg/kg
